According to patent EP0183129A1, “Quinolonecarboxylic acid derivatives” (KYORIN PHARMACEUTICAL CO., LTD., priority 1984, dated 1986):
≈ marks a conversion by molar mass, not a printed value. Like-named read-outs stand apart in the source and are kept apart here.

What was measured:
[1] = system: Bacillus subtilis PCI 219; test: In vitro antibacterial activity, MIC (standard strain); type: cell-based; conditions: PCI219
[2] = system: Staphylococcus aureus 209 P; test: as above; type: cell-based
S. epidermidis IID 866 = test: as above; type: cell-based; conditions: Staphylococcus epidermidis
[3] = system: Escherichia coli NIHJ JC-2; test: as above; type: cell-based; conditions: Escherichia coli, NIHJJC2, Escherichia coli NIHJ JC-2; 10^6 cells/ml; standard strain; read-out: MIC
E. coli ML 4707 = test: as above; type: cell-based; conditions: Escherichia coli, ML4707; E. coli ML 4707; 10^6 cells/ml; standard strain; read-out: MIC
[4] = system: Proteus vulgaris IFO 3167; test: as above; type: cell-based; conditions: IFO3167
P. mirabilis IID 994 = test: as above; type: cell-based; conditions: Proteus mirabilis, IID994
[5] = system: Citrobacter freundii IID 976; test: as above; type: cell-based; conditions: IID976; Citrobacter freundii IID 976; 10^6 cells/ml; standard strain; read-out: MIC
[6] = system: Klebsiella pneumoniae KY(GN)6445; test: as above; type: cell-based; conditions: Klebsiella pneumoniae KY(GN)6445; 10^6 cells/ml; standard strain; read-out: MIC
K. pneumoniae 1-220S = test: as above; type: cell-based; conditions: Klebsiella pneumoniae, 1220S; K. pneumoniae 1-220S; 10^6 cells/ml; standard strain; read-out: MIC
[7] = system: Serratia marcescens IID 618; test: as above; type: cell-based; conditions: Serratia marcescens, IID618, Serratia marcescens IID 618; 10^6 cells/ml; standard strain; read-out: MIC
[8] = system: Pseudomonas aeruginosa V-1; test: as above; type: cell-based; conditions: V1; Pseudomonas aeruginosa V-1; 10^6 cells/ml; standard strain; read-out: MIC
P. aeruginosa IID 1210 = test: as above; type: cell-based; conditions: Pseudomonas aeruginosa, IID1210; P. aeruginosa IID 1210; 10^6 cells/ml; standard strain; read-out: MIC
[9] = system: Alcaligenes faecalis 0104002; test: as above; type: cell-based; conditions: Alcaligenes faecalis, 0104002, Alcaligenes faecalis 0104002; 10^6 cells/ml; standard strain; read-out: MIC
B. fragilis 25285 = test: as above; type: cell-based, Bacteroides fragilis; conditions: Bacteroides fragilis, 25285, B. fragilis 25285; 10^6 cells/ml; standard strain; read-out: MIC
[10] = system: Fusobacterium varium KYA 8501; test: as above; type: cell-based; conditions: Fusobacterium varium, KYA8501, Fusobacterium varium KYA 8501; 10^6 cells/ml; standard strain; read-out: MIC
C. ramosum = test: as above; type: cell-based; conditions: Thomasclavelia ramosa; C. ramosum; 10^6 cells/ml; standard strain; read-out: MIC
S. pyogenes 3130 = test: In vitro antibacterial activity, MIC (clinical isolates); type: cell-based; conditions: Streptococcus pyogenes, read-out: MIC
S. pyogenes 3102 = test: as above; type: cell-based; conditions: Streptococcus pyogenes; S. pyogenes 3102; 10^6 cells/ml; clinical isolate; read-out: MIC
S. pyogenes 4372 = test: as above; type: cell-based; conditions: Streptococcus pyogenes; S. pyogenes 4372; 10^6 cells/ml; clinical isolate; read-out: MIC
S. agalactiae 4394 = test: as above; type: cell-based; conditions: Streptococcus agalactiae; S. agalactiae 4394; 10^6 cells/ml; clinical isolate; read-out: MIC
S. agalactiae 4049 = test: as above; type: cell-based; conditions: Streptococcus agalactiae; S. agalactiae 4049; 10^6 cells/ml; clinical isolate; read-out: MIC
S. agalactiae 4368 = test: as above; type: cell-based; conditions: Streptococcus agalactiae; S. agalactiae 4368; 10^6 cells/ml; clinical isolate; read-out: MIC
S. faecalis 401 = test: as above; type: cell-based; conditions: Enterococcus faecalis; S. faecalis 401; 10^6 cells/ml; clinical isolate; read-out: MIC
E. coli ML4707 = test: In vivo antibacterial activity against systemic infection in mice; design: species or system mice (ICR-S); conditions: for ED50: Escherichia coli, ML4707, mice (ICR-S), oral, an hour after intraperitoneal infection, challenge dose 2.7 x 10^6 ~ 8.8 x 10^6 cfu/mouse, read-out: ED50 E. coli ML4707
Protocol: Experiment-2 In vivo antibacterial activity against systemic infection in mice (ICR-S)
The infections were produced by intraperitoneal injection of a suspension of the bacterial culture corresponding to the germ studied. The products were administered orally at an hour after the infection.

[11] = Bacillus subtilis PCI 219, 10^6 cells/ml, standard strain, read-out: MIC
[12] = Staphylococcus aureus 209 P, 10^6 cells/ml, standard strain, read-out: MIC
[13] = IID866, S. epidermidis IID 866, 10^6 cells/ml, standard strain, read-out: MIC
[14] = Proteus vulgaris IFO 3167, 10^6 cells/ml, standard strain, read-out: MIC
[15] = P. mirabilis IID 994, 10^6 cells/ml, standard strain, read-out: MIC

## CC(C)NCC1CCN(c2c(F)cc3c(=O)c(C(=O)O)cn(C4CC4)c3c2F)C1.Cl (stereo not shown) [Example 11, 1-Cyclopropyl-6,8-difluoro-1,4-dihydro-7-(3-isopropylaminomethyl-1-pyrrolidinyl)-4-oxo-3-quinolinecarboxylic acid hydrochloride]
[1]; [11]
  MIC: 0.025 µg/mL
[2]; [12]
  MIC: 0.05 µg/mL
S. epidermidis IID 866; [13]
  MIC: 0.05 µg/mL
[3]
  MIC: 0.05 µg/mL
E. coli ML 4707
  MIC: 0.05 µg/mL
[4]; [14]
  MIC: 0.05 µg/mL
P. mirabilis IID 994; [15]
  MIC: 0.1 µg/mL
[5]
  MIC: 0.1 µg/mL
[6]
  MIC: 0.1 µg/mL
K. pneumoniae 1-220S
  MIC: 0.2 µg/mL
[7]
  MIC: 0.39 µg/mL
[8]
  MIC: 1.56 µg/mL
P. aeruginosa IID 1210
  MIC: 3.13 µg/mL
[9]
  MIC: 1.56 µg/mL
B. fragilis 25285
  MIC: 0.78 µg/mL
[10]
  MIC: 3.13 µg/mL
C. ramosum
  MIC: 0.78 µg/mL
S. pyogenes 3130
  MIC: 0.2 µg/mL
S. pyogenes 3102
  MIC: 0.2 µg/mL
S. pyogenes 4372
  MIC: 0.2 µg/mL
S. agalactiae 4394
  MIC: 0.39 µg/mL
S. agalactiae 4049
  MIC: 0.39 µg/mL
S. agalactiae 4368
  MIC: 0.2 µg/mL
S. faecalis 401
  MIC: 0.39 µg/mL

## NCC1CCN(c2c(F)cc3c(=O)c(C(=O)O)cn(C4CC4)c3c2Br)C1 (stereo not drawn) [Example 15, 7-(3-Aminomethyl-l-pyrrolidinyl)-8-bromo-l-cyclopropyl-6-fluoro-1,4-dihydro-4-oxo-3-quinolinecarboxylic acid]
[1]; Bacillus subtilis
  MIC: 0.0125 µg/mL (≈ 0.0295 µM)
[2]; Staphylococcus aureus, 209P
  MIC: 0.0125 µg/mL (≈ 0.0295 µM)
S. epidermidis IID 866; IID866
  MIC: 0.0125 µg/mL (≈ 0.0295 µM)
[3]
  MIC: ≤ 0.0063 µg/mL
E. coli ML 4707
  MIC: 0.025 µg/mL (≈ 0.0589 µM)
[4]; Proteus vulgaris
  MIC: 0.0125 µg/mL (≈ 0.0295 µM)
P. mirabilis IID 994
  MIC: 0.0125 µg/mL (≈ 0.0295 µM)
[5]
  MIC: 0.025 µg/mL (≈ 0.0589 µM)
[6]
  MIC: 0.025 µg/mL (≈ 0.0589 µM)
K. pneumoniae 1-220S
  MIC: 0.05 µg/mL (≈ 0.118 µM)
[7]
  MIC: 0.1 µg/mL (≈ 0.236 µM)
[8]
  MIC: 0.1 µg/mL (≈ 0.236 µM)
P. aeruginosa IID 1210
  MIC: 0.78 µg/mL (≈ 1.84 µM)
[9]
  MIC: 0.2 µg/mL (≈ 0.471 µM)
B. fragilis 25285
  MIC: ≤ 0.05 µg/mL
[10]
  MIC: 0.39 µg/mL (≈ 0.919 µM)
C. ramosum
  MIC: 0.39 µg/mL (≈ 0.919 µM)
S. pyogenes 3130
  MIC: 0.05 µg/mL (≈ 0.118 µM)
S. pyogenes 3102
  MIC: 0.05 µg/mL (≈ 0.118 µM)
S. pyogenes 4372
  MIC: 0.05 µg/mL (≈ 0.118 µM)
S. agalactiae 4394
  MIC: 0.2 µg/mL (≈ 0.471 µM)
S. agalactiae 4049
  MIC: 0.05 µg/mL (≈ 0.118 µM)
S. agalactiae 4368
  MIC: 0.05 µg/mL (≈ 0.118 µM)
S. faecalis 401
  MIC: 0.2 µg/mL (≈ 0.471 µM)
E. coli ML4707
  ED50: 7.1 mg/kg

## CNCC1CCN(c2c(F)cc3c(=O)c(C(=O)O)cn(C4CC4)c3c2Br)C1 (stereo not drawn) [Example 16, 8-Bromo-1-cyclopropyl-6-fluoro-1,4-dihydro-7-(3-methylaminomethyl-l-pyrrolidinyl)-4-oxo-3-quinolinecarboxylic acid]
[1]; [11]
  MIC: 0.0125 µg/mL (≈ 0.0285 µM)
[2]; [12]
  MIC: 0.0125 µg/mL (≈ 0.0285 µM)
S. epidermidis IID 866; [13]
  MIC: 0.025 µg/mL (≈ 0.057 µM)
[3]
  MIC: 0.0125 µg/mL (≈ 0.0285 µM)
E. coli ML 4707
  MIC: 0.025 µg/mL (≈ 0.057 µM)
[4]; [14]
  MIC: 0.025 µg/mL (≈ 0.057 µM)
P. mirabilis IID 994; [15]
  MIC: 0.025 µg/mL (≈ 0.057 µM)
[5]
  MIC: 0.05 µg/mL (≈ 0.114 µM)
[6]
  MIC: 0.05 µg/mL (≈ 0.114 µM)
K. pneumoniae 1-220S
  MIC: 0.1 µg/mL (≈ 0.228 µM)
[7]
  MIC: 0.1 µg/mL (≈ 0.228 µM)
[8]
  MIC: 0.2 µg/mL (≈ 0.456 µM)
P. aeruginosa IID 1210
  MIC: 1.56 µg/mL (≈ 3.56 µM)
[9]
  MIC: 0.39 µg/mL (≈ 0.89 µM)
B. fragilis 25285
  MIC: 0.1 µg/mL (≈ 0.228 µM)
[10]
  MIC: 0.39 µg/mL (≈ 0.89 µM)
C. ramosum
  MIC: 0.39 µg/mL (≈ 0.89 µM)
S. pyogenes 3130
  MIC: 0.05 µg/mL (≈ 0.114 µM)
S. pyogenes 3102
  MIC: 0.05 µg/mL (≈ 0.114 µM)
S. pyogenes 4372
  MIC: 0.05 µg/mL (≈ 0.114 µM)
S. agalactiae 4394
  MIC: 0.1 µg/mL (≈ 0.228 µM)
S. agalactiae 4049
  MIC: 0.05 µg/mL (≈ 0.114 µM)
S. agalactiae 4368
  MIC: 0.05 µg/mL (≈ 0.114 µM)
S. faecalis 401
  MIC: 0.1 µg/mL (≈ 0.228 µM)
E. coli ML4707
  ED50: 1.9 mg/kg

## CCNCC1CCN(c2c(F)cc3c(=O)c(C(=O)O)cn(C4CC4)c3c2Br)C1 (stereo not drawn) [Example 17, 8-Bromo-l-cyclopropyl-7-(3-ethylaminomethyl-l-pyrrolidinyl)-6-fluoro-1,4-dihydro-4-oxo-3-quinolinecarboxylic acid]
[1]; [11]
  MIC: 0.0125 µg/mL (≈ 0.0276 µM)
[2]; [12]
  MIC: 0.0125 µg/mL (≈ 0.0276 µM)
S. epidermidis IID 866; [13]
  MIC: 0.025 µg/mL (≈ 0.0553 µM)
[3]
  MIC: 0.0125 µg/mL (≈ 0.0276 µM)
E. coli ML 4707
  MIC: 0.025 µg/mL (≈ 0.0553 µM)
[4]; [14]
  MIC: 0.025 µg/mL (≈ 0.0553 µM)
P. mirabilis IID 994; [15]
  MIC: 0.025 µg/mL (≈ 0.0553 µM)
[5]
  MIC: 0.05 µg/mL (≈ 0.111 µM)
[6]
  MIC: 0.05 µg/mL (≈ 0.111 µM)
K. pneumoniae 1-220S
  MIC: 0.1 µg/mL (≈ 0.221 µM)
[7]
  MIC: 0.1 µg/mL (≈ 0.221 µM)
[8]
  MIC: 0.39 µg/mL (≈ 0.862 µM)
P. aeruginosa IID 1210
  MIC: 1.56 µg/mL (≈ 3.45 µM)
[9]
  MIC: 0.39 µg/mL (≈ 0.862 µM)
B. fragilis 25285
  MIC: ≤ 0.05 µg/mL
[10]
  MIC: 0.39 µg/mL (≈ 0.862 µM)
C. ramosum
  MIC: 0.39 µg/mL (≈ 0.862 µM)
S. pyogenes 3130
  MIC: 0.05 µg/mL (≈ 0.111 µM)
S. pyogenes 3102
  MIC: 0.05 µg/mL (≈ 0.111 µM)
S. pyogenes 4372
  MIC: 0.05 µg/mL (≈ 0.111 µM)
S. agalactiae 4394
  MIC: 0.1 µg/mL (≈ 0.221 µM)
S. agalactiae 4049
  MIC: 0.05 µg/mL (≈ 0.111 µM)
S. agalactiae 4368
  MIC: 0.05 µg/mL (≈ 0.111 µM)
S. faecalis 401
  MIC: 0.1 µg/mL (≈ 0.221 µM)
E. coli ML4707
  ED50: 0.9 mg/kg
E. coli ML4707; systemic infection in mice, result in words
  activity against gram-negative bacterial infections compared with the reference compounds: greater activity against gram-negative bacterial infections than the reference compounds
